Assay results published in US10201617B2, “3-substituted piperidine-2, 6-diones and non-covalent complexes with albumin” (Zhuhai Beihai Biotech Co., Ltd., priority 2014, dated 2019).

Assays:
[1] = Persistence control: incubation in PBS buffer (pH 7.4) at 37° C., LC-MS/MS; format: physicochemical; details: for Peak Area Ratio (Analyte/incubation sample): PBS Buffer, 24 hr; for % Remaining after 24-hr Incubation at 37° C.: PBS buffer
[2] = Persistence in plasma: incubation with human plasma at 37° C., LC-MS/MS; format: in vitro ADME; details: for Peak Area Ratio (Analyte/incubation sample): Human Plasma
Protocol: Test compounds and control (procaine) were incubated at a concentration of 10 μM with human plasma. […]
After quenching by acetonitrile, the plates were capped, vortexed, and centrifuged at 3000 rpm for 10 minutes. The supernatant was injected into LC-MS/MS.

[3] = biological target: T1, CYP1A2 (Homo sapiens, UniProt P05177); details: cited from earlier work
T1 sequence (P05177 1-516): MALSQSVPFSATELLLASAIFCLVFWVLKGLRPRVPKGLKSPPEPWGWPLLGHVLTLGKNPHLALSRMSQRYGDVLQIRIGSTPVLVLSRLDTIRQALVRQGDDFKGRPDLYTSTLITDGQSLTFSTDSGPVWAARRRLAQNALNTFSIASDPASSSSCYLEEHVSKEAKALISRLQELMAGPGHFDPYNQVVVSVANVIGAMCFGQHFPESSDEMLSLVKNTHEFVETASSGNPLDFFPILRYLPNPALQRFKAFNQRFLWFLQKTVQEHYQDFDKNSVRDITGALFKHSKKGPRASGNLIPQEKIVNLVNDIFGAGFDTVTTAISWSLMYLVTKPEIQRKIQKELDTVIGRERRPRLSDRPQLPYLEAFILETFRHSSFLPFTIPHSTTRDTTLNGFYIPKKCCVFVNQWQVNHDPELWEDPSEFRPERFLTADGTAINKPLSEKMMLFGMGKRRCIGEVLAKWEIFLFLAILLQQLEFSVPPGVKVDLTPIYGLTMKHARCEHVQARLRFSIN

[4] = regardless of pH; cited from earlier work
[5] = system: CYP3A; details: cited from earlier work

| SMILES | Peak Area Ratio (Analyte/incubation sample) ([1]; Replicate 1) | Peak Area Ratio (Analyte/incubation sample) ([1]; Replicate 2) | % Remaining after 24-hr Incubation at 37° C. ([1]; Average) | % Remaining after 24-hr Incubation at 37° C. ([1]; Replicate 1) | % Remaining after 24-hr Incubation at 37° C. ([1]; Replicate 2) | Peak Area Ratio (Analyte/incubation sample) ([2]; 0 hr, Replicate 1) | Peak Area Ratio (Analyte/incubation sample) ([2]; 0 hr, Replicate 2) | Peak Area Ratio (Analyte/incubation sample) ([2]; 24 hr, Replicate 1) | Peak Area Ratio (Analyte/incubation sample) ([2]; 24 hr, Replicate 2) | % Remaining after 24-hr Incubation at 37° C. ([2]; human, plasma, 24 h, 10 μM) | substrate of CYP1A2 liver enzyme [3] | solubility [4] | substrate of CYP3A liver enzyme [5] |
| --- | --- | --- | --- | --- | --- | --- | --- | --- | --- | --- | --- | --- | --- |
| CCN(CC)CCOC(=O)c1ccc(N)cc1 [Procaine, procaine] | 0.413 | 0.419 | 109% | 108.40% | 109.97% | 0.311 | 0.451 | 0.0 | 0.0 | 0.0% | – | – | – |
| Nc1cccc2c1C(=O)N(C1CCC(=O)NC1=O)C2=O (stereo not shown) [pomalidomide] | – | – | – | – | – | – | – | – | – | – | substrate | about 0.01 mg/mL | substrate |
